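Five compound concentrations were applied to cells in 96-well plates for 48 hours; endpoints were derived by simple linear interpolation of the resulting dose-response curve. GI50 = concentration required for 50% inhibition of growth.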 The source made the active and inactive calls. No stated cut-off is given here; in the data, active = GI50 up to about 1.1 µM and inactive = higher.
Assays:
Experiment in all cases: DTP human tumour cell line panel, 48 h
[1] = system: SNB-78
[2] = system: COLO 205
[3] = system: HOP-62
[4] = system: HL-60
[5] = system: UACC-257
[6] = system: CCRF-CEM
[7] = system: ACHN
[8] = system: DLD-1
[9] = system: SK-OV-3
[10] = system: OVCAR-4
[11] = system: OVCAR-5
[12] = system: SNB-75
[13] = system: TK-10
[14] = system: SK-MEL-28
[15] = system: HCT-15
[16] = system: HCT-116
[17] = system: HT-29
[18] = system: A498
[19] = system: SNB-19
[20] = system: SF-295
[21] = system: NCI-H226
[22] = system: RPMI-8226
[23] = system: Malme-3M
[24] = system: OVCAR-3
[25] = system: SK-MEL-5
[26] = system: M19-MEL
[27] = system: NCI-H522
[28] = system: IGROV-1
[29] = system: DMS-273
[30] = system: RXF 631
[31] = system: U-251
[32] = system: KM12
[33] = system: MOLT-4
[34] = system: SN12C
[35] = system: SF-539
[36] = system: SW-620
[37] = system: HOP-18
[38] = system: M14
[39] = system: EKVX
[40] = system: CAKI-1
[41] = system: NCI-H23
[42] = system: 786-0
[43] = system: K562
[44] = system: OVCAR-8
[45] = system: A549
[46] = system: HCC 2998
[47] = system: SF-268
[48] = system: UACC-62
[49] = system: HOP-92
[50] = system: DMS-114
[51] = system: KM-20L2
[52] = system: NCI-H460
[53] = system: UO-31
[54] = system: LXFL 529
[55] = system: RXF 393
[56] = system: NCI/ADR-RES
[57] = system: MDA-MB-435
[58] = system: Hs-578T
[59] = system: T47D
[60] = system: BT-549
[61] = system: MDA-N
[62] = system: MCF7
[63] = system: MDA-MB-231
[64] = system: SK-MEL-2
[65] = system: XF498
[66] = system: DU-145
[67] = system: SR
[68] = system: LOX IMVI
[69] = system: PC-3

With `Clc1ccc(OC2CCO2)cc1Cl` (configuration not stated) the GI50 [1] was > 100 µM (inactive), the GI50 [2] was 90.8 µM (inactive) and the GI50 [3] was 78.9 µM (inactive). For the same molecule, the GI50 [4] was 35.6 µM (inactive), the GI50 [5] was 40 µM (inactive) and the GI50 [6] was 48.3 µM (inactive). The GI50 [7] was 49.7 µM (inactive), the GI50 [8] was 85.9 µM (inactive) and the GI50 [9] was > 100 µM (inactive). For the same molecule, the GI50 [10] was 60 µM (inactive), the GI50 [11] was 83.2 µM (inactive) and the GI50 [12] was > 100 µM (inactive). The GI50 [13] was 87.7 µM (inactive), the GI50 [14] was > 100 µM (inactive) and the GI50 [15] was 15.7 µM. The GI50 [16] was 33.8 µM (inactive), the GI50 [17] was 85.5 µM (inactive) and the GI50 [18] was 38 µM (inactive). For the same molecule, the GI50 [19] was > 100 µM (inactive), the GI50 [20] was > 100 µM (inactive) and the GI50 [21] was 52.8 µM (inactive). For the same molecule, the GI50 [22] was 43.5 µM (inactive), the GI50 [23] was > 100 µM (inactive) and the GI50 [24] was 57.8 µM (inactive). For the same molecule, the GI50 [25] was 62.1 µM (inactive), the GI50 [26] was > 100 µM (inactive) and the GI50 [27] was 34.3 µM (inactive). The GI50 [28] was > 100 µM (inactive), the GI50 [29] was 63.1 µM (inactive) and the GI50 [30] was 25.1 µM (inactive). The GI50 [31] was 88.3 µM (inactive), the GI50 [32] was 76.6 µM (inactive) and the GI50 [33] was 35.3 µM (inactive). The GI50 [34] was 88.5 µM (inactive), the GI50 [35] was > 100 µM (inactive) and the GI50 [36] was 17.9 µM (inactive). For the same molecule, the GI50 [37] was > 100 µM (inactive), the GI50 [38] was > 100 µM (inactive) and the GI50 [39] was > 100 µM (inactive). The GI50 [40] was 53.1 µM (inactive), the GI50 [41] was 83.8 µM (inactive) and the GI50 [42] was 85.9 µM (inactive). For the same molecule, the GI50 [43] was 40.6 µM (inactive), the GI50 [44] was 96.2 µM (inactive) and the GI50 [45] was > 100 µM (inactive). For the same molecule, the GI50 [46] was > 100 µM (inactive), the GI50 [47] was 78.2 µM (inactive) and the GI50 [48] was 72.6 µM (inactive). The GI50 [49] was 46.3 µM (inactive), the GI50 [50] was 34.4 µM (inactive) and the GI50 [51] was 76.4 µM (inactive). The GI50 [52] was 47.2 µM (inactive), the GI50 [53] was 62.4 µM (inactive) and the GI50 [54] was 70.5 µM (inactive).
With `CC(C)CC(NC(=O)OC(C)(C)C)C(=O)Nc1ccc(Nc2nc(F)nc(-c3c4ccccc4cn3C)n2)cc1` (configuration not stated) the GI50 [1] was 14.7 µM (inactive), the GI50 [2] was 18.6 µM (inactive) and the GI50 [3] was 12.7 µM (inactive). The GI50 [55] was 22.2 µM (inactive), the GI50 [56] was > 100 µM (inactive) and the GI50 [57] was > 100 µM (inactive). For the same molecule, the GI50 [4] was 3.94 µM (inactive), the GI50 [58] was 40.3 µM (inactive) and the GI50 [5] was > 100 µM (inactive). For the same molecule, the GI50 [6] was 33.3 µM (inactive), the GI50 [59] was 40.4 µM (inactive) and the GI50 [7] was 62.7 µM (inactive). The GI50 [8] was > 37.2 µM (inactive), the GI50 [9] was > 100 µM (inactive) and the GI50 [10] was > 41.8 µM (inactive). For the same molecule, the GI50 [11] was > 100 µM (inactive), the GI50 [12] was 47.1 µM (inactive) and the GI50 [13] was > 92.7 µM (inactive). For the same molecule, the GI50 [14] was > 100 µM (inactive), the GI50 [60] was > 100 µM (inactive) and the GI50 [15] was > 68.9 µM. The GI50 [16] was 72.1 µM (inactive), the GI50 [17] was 23.1 µM (inactive) and the GI50 [18] was 98.6 µM (inactive). For the same molecule, the GI50 [19] was > 86.1 µM (inactive), the GI50 [20] was > 81.7 µM (inactive) and the GI50 [21] was > 100 µM (inactive). The GI50 [22] was 3.07 µM (inactive), the GI50 [23] was > 100 µM (inactive) and the GI50 [24] was 22.5 µM (inactive). The GI50 [61] was > 100 µM (inactive), the GI50 [62] was 4.89 µM (inactive) and the GI50 [25] was > 100 µM (inactive). For the same molecule, the GI50 [26] was 97.9 µM (inactive), the GI50 [27] was 75.3 µM (inactive) and the GI50 [28] was > 100 µM (inactive). The GI50 [29] was 42.6 µM (inactive), the GI50 [31] was 43.9 µM (inactive) and the GI50 [32] was 12.6 µM (inactive). The GI50 [33] was 59.7 µM (inactive), the GI50 [34] was > 100 µM (inactive) and the GI50 [35] was > 93.3 µM (inactive). For the same molecule, the GI50 [36] was > 36 µM (inactive), the GI50 [37] was > 100 µM (inactive) and the GI50 [38] was > 100 µM (inactive). The GI50 [63] was 66.1 µM (inactive), the GI50 [39] was 52.7 µM (inactive) and the GI50 [40] was > 100 µM (inactive). For the same molecule, the GI50 [41] was 62.5 µM (inactive), the GI50 [42] was > 100 µM (inactive) and the GI50 [43] was 62.2 µM (inactive). The GI50 [44] was 98.6 µM (inactive), the GI50 [45] was > 100 µM (inactive) and the GI50 [46] was 15.8 µM (inactive). The GI50 [47] was > 100 µM (inactive), the GI50 [64] was > 100 µM (inactive) and the GI50 [65] was > 85.1 µM (inactive). For the same molecule, the GI50 [48] was > 100 µM (inactive), the GI50 [66] was 20.3 µM (inactive) and the GI50 [49] was 52.2 µM (inactive). The GI50 [67] was 53.6 µM (inactive), the GI50 [68] was > 100 µM (inactive) and the GI50 [69] was 35.1 µM (inactive). The GI50 [50] was 21.8 µM (inactive), the GI50 [51] was 37.6 µM (inactive) and the GI50 [52] was > 75 µM (inactive). For the same molecule, the GI50 [53] was 44.9 µM (inactive) and the GI50 [54] was 77.3 µM (inactive).
